The record followed here is patent publication US20250066389A1, “HETEROCYCLIC AMIDES AND METHODS OF USING THE SAME” (Rgenta Therapeutics, Inc., priority 2021, published 2025).

Structures can show the parent of a compound that is named as a salt.

The test system of one experiment is PMS1. The experiment in a line: Mini-Gene Reporter Assay—PMS1 (firefly luciferase mini-gene reporter transiently transfected into HEK293 cells). The format is cell-based. As to conditions: Homo sapiens; at 5 uM; mini-gene firefly luciferase reporter in HEK293 cells; read-out: PMS1 % Effect at 5 uM. In a few lines: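 Luminescence (RLU) read-out of exon inclusion: compound dilutions, tested in duplicate, act on transiently transfected HEK293 cells carrying a firefly luciferase reporter fused downstream of the PMS1 skipped-exon region. Potency derived by Levenberg-Marquardt curve fitting, with percent effect at 5 μM.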
`CCOc1cc2nn(C)cc2cc1C(=O)Nc1cnc(N2C[C@@H](F)C[C@H]2CN)nc1` [Compound 427]: the activation at 5 µM is less than 50%. For the molecule `CCOc1cn2nc(C)cc2cc1C(=O)Nc1cnc(N2CC3CNCC(C3)C2)cn1` [Compound 533], the activation at 5 µM was less than 50%. Same read-out and setting: with `CCOc1cc2nn(C)cc2cc1C(=O)Nc1cnc(NCC2C3CNCC32)cn1` (stereo not drawn) [Compound 322] the figure was less than 50%. Regarding `COc1cc2nc(C)cn2cc1C(=O)Nc1ccc(N2CCC3(CCN3)CC2)cc1F` [Compound 143, N-(2-fluoro-4-(1,7-diazaspiro[3.5]nonan-7-yl)phenyl)-7-methoxy-2-methylimidazo[1,2-a]pyridine-6-carboxamide], the activation at 5 µM was more than 75%. Turning to `CCOc1cc2nn(C)cc2cc1C(=O)Nc1cnc(N2C[C@H]3CNC[C@H]3C2)nc1` [Compound 464], the activation at 5 µM lay in the range of 50 to 75%. Regarding `CCOc1cc2nn(C)cc2cc1C(=O)Nc1cnc(N2CCCC(NC)C2)nc1` (stereo not drawn) [Compound 466], the activation at 5 µM was less than 50%. With `CCOc1cc2nn(C)cc2cc1C(=O)Nc1cnc(NCCC2(O)CNC2)nc1` [Compound 447], the activation at 5 µM was less than 50%. Same read-out and setting: with `CCOc1cn2nc(C)cc2cc1C(=O)Nc1cnc(N2CCNC(CS(C)(=O)=O)C2)nc1` (stereo not drawn) [Compound 608] the figure was less than 50%. For `CCOc1cc2nn(C)cc2cc1C(=O)Nc1cnc(NCC2CNC2)nc1` [Compound 468], the activation at 5 µM is less than 50%. For `CCOc1cc2nn(C)cc2cc1C(=O)Nc1cnc(NCC2CC3CCC2N3)cn1` (stereo not drawn) [Compound 304], the activation at 5 µM was more than 75%.

With `CCOc1cn2nc(C)cc2cc1C(=O)Nc1cnc(NC2CCCCC23CCNC3)cn1` (stereo not drawn) [Compound 494], the activation at 5 µM is less than 50%. The same measure, in the same setting: the result for `Cc1cn2cc(C(=O)Nc3ccc(N4CCN[C@H](C)C4)nc3)ncc2n1` [Compound 104, hydrochloride] reads less than 50%; that for `CCOc1cc2nn(C)cc2cc1C(=O)Nc1cnc(NCCC2CC3CCC(C2)N3)cn1` (stereo not drawn) [Compound 310], less than 50%; that for `CCOc1cc2nn(C)cc2cc1C(=O)Nc1cnc(NCC2CCNCC2(F)F)cn1` (stereo not drawn) [Compound 335], less than 50%. The same measure, in the same setting: with `CCOc1cn2nc(C)cc2cc1C(=O)Nc1cnc(NCCNC)cn1` [Compound 552] the figure was more than 75%; with `CCOc1cc2nn(C)cc2cc1C(=O)Nc1cnc(NCCC2CC(F)(F)CN2)nc1` (stereo not drawn) [Compound 417], less than 50%.

As to `CCOc1cc2nn(C)cc2cc1C(=O)Nc1cnc(NCCCC2CCCN2)nc1` (stereo not drawn) [Compound 398], the activation at 5 µM is less than 50%. Still for that read-out and setting: with `CNC1CCN(c2ccc(NC(=O)c3cn4cc(C)nc4cc3OC)c(F)c2)CC1` [Compound 164, N-(2-fluoro-4-(4-(methylamino)piperidin-1-yl)phenyl)-7-methoxy-2-methylimidazo[1,2-a]pyridine-6-carboxamide] the figure was more than 75%; with `CCOc1cc2nn(C)cc2cc1C(=O)Nc1cnc(NC[C@H]2CNCC(C)(C)O2)nc1` [Compound 394], less than 50%. In the case of `CCOc1cc2nn(C)cc2cc1C(=O)Nc1cnc(NC2CCNCC2F)cn1` (stereo not drawn) [Compound 355], the activation at 5 µM was more than 75%. Still for that read-out and setting: the result for `CCOc1cn2nc(C)cc2cc1C(=O)Nc1cnc(N2CCCC(CCN)C2)cn1` (stereo not drawn) [Compound 544] reads less than 50%; that for `CCOc1cn2nc(C)cc2cc1C(=O)Nc1cnc(N2CCOC3(CCNCC3)C2)nc1` [Compound 587], less than 50%; that for `CCOc1cn2nc(C)cc2cc1C(=O)Nc1cnc(NCC2(F)CNC2)cn1` [Compound 536], less than 50%. Regarding `COc1cc2nc(C)cn2cc1C(=O)Nc1ccc(N2CCC3NCCCC3C2)cc1F` (stereo not drawn) [Compound 131, N-(2-fluoro-4-(octahydro-1,6-naphthyridin-6(2H)-yl)phenyl)-7-methoxy-2-methylimidazo[1,2-a]pyridine-6-carboxamide], the activation at 5 µM lay within 50 to 75%.

As to `CCOc1cc2nn(C)cc2cc1C(=O)Nc1cnc(NC2CNCC(C)C2)cn1` (stereo not drawn) [Compound 323], the activation at 5 µM was less than 50%. On the same count and under the same terms, the result for `CCOc1cn2nc(C)cc2cc1C(=O)Nc1cnc(N(C)CC2CCNC2)nc1` (stereo not drawn) [Compound 583] reads less than 50%.

In the case of `CCOc1cc2nc(C)cn2cc1C(=O)Nc1cnc(N2CCC(N)C2)cn1` (stereo not drawn) [Compound 694], the activation at 5 µM is more than 75%.

As for `CCOc1cc2nn(C)cc2cc1C(=O)Nc1cnc(N(C)CC2CCCN2)nc1` (stereo not drawn) [Compound 446], the activation at 5 µM is less than 50%. In the case of `CCOc1cn2nc(C)cc2cc1C(=O)Nc1cnc(NCC2CCNCC2)cn1` [Compound 555], the activation at 5 µM was less than 50%. Still for that read-out and setting: with `COc1cc2nc(C)cn2cc1C(=O)Nc1ccc(N2CCC3(CCNC3)C2)cc1F` (stereo not drawn) [Compound 145, N-(2-fluoro-4-(2,7-diazaspiro[4.4]nonan-2-yl)phenyl)-7-methoxy-2-methylimidazo[1,2-a]pyridine-6-carboxamide] the figure was less than 50%; with `CCNCCN(CC)c1cnc(NC(=O)c2cc3cn(C)nc3cc2OCC)cn1` [Compound 344], less than 50%; with `COc1cc2nc(C)cn2cc1C(=O)Nc1ccc(N2CC3CCCC(C2)NC3)cc1F` (stereo not drawn) [Compound 138, N-(4-(3,9-diazabicyclo[3.3.2]decan-3-yl)-2-fluorophenyl)-7-methoxy-2-methylimidazo[1,2-a]pyridine-6-carboxamide], more than 75%. Still for that read-out and setting: with `CCOc1cc2nn(C)cc2cc1C(=O)Nc1cnc(NC(C)CC2CC3CCC(C2)N3)cn1` (stereo not drawn) [Compound 311] the figure was less than 50%; with `CCOc1cn2nc(C)cc2cc1C(=O)Nc1cnc(N2CCC(N)(CC)CC2)nc1` [Compound 564], less than 50%; with `Cc1cn2cc(C(=O)Nc3ccc(N4CCN[C@@H](C)C4)cn3)cc(F)c2n1` [Compound 107, (S)-8-fluoro-2-methyl-N-(5-(3-methylpiperazin-1-yl)pyridin-2-yl)imidazo[1,2-a]pyridine-6-carboxamide TFA Salt], 50 to 75%.

The same experiment, now with this note: Homo sapiens; mini-gene firefly luciferase reporter in HEK293 cells.
By IC50 is commonly meant the concentration needed to halve the response being measured. The molecule `Cc1cn2cc(C(=O)Nc3ccc(N4CCNCC4)cn3)c(OC3CC3)cc2n1` [Compound 712, 7-cyclopropoxy-2-methyl-N-(5-(piperazin-1-yl)pyridin-2-yl) imidazo[1,2-a]pyridine-6-carboxamide hydrochloride] gave an IC50 of less than 1000 nM. On the same count and under the same terms, with `COc1cc2nc(C)cn2cc1C(=O)Nc1ccc(N2CCNC(CC(F)F)C2)cc1F` (stereo not drawn) [Compound 173, N-(4-(3-(2,2-difluoroethyl)piperazin-1-yl)-2-fluorophenyl)-7-methoxy-2-methylimidazo[1,2-a]pyridine-6-carboxamide] the figure was 1000 to 10000 nM; with `CCOc1nc2nc(C)cn2cc1C(=O)Nc1ccc(N2CCNCC2)nn1` [Compound 732, 7-ethoxy-2-methyl-N-(6-(piperazin-1-yl)pyridazin-3-yl)imidazo[1,2-a]pyrimidine-6-carboxamide formate], 1000 to 10000 nM.

The molecule `CCOc1cc2nc(C)cn2cc1C(=O)Nc1ccc(N2CCC(NC(C)(C)C)C2)nn1` (stereo not drawn) [Compound 733, N-(6-(3-(tert-butylamino)pyrrolidin-1-yl)pyridazin-3-yl)-7-ethoxy-2-methylimidazo[1,2-a]pyridine-6-carboxamide] yielded an IC50 of 1000 to 10000 nM.

`CCOc1nc2nc(C)cn2cc1C(=O)Nc1cnc(N2C[C@@H](C)N[C@@H](C)C2)cn1` [Compound 721, N-(5-((3R,5S)-3,5-dimethylpiperazin-1-yl)pyrazin-2-yl)-7-ethoxy-2-methylimidazo[1,2-a]pyrimidine-6-carboxamide hydrochloride] displayed an IC50 of 1000 to 10000 nM.

Regarding `CCOc1cc2nc(C)cn2cc1C(=O)Nc1ccc(N2CCNCC2C)nn1` (stereo not drawn) [Compound 291], the IC50 lay within 1000 to 10000 nM.

For the molecule `COc1cc2nc(C)cn2cc1C(=O)Nc1ccc(N2CCNCC2C(F)F)cc1F` (stereo not drawn) [Compound 627], the IC50 is 1000 to 10000 nM. The same measure, in the same setting: with `COc1cc2nc(C)cn2cc1C(=O)Nc1ccc(N2C[C@@H]3C[C@H]2CN3)cc1F` [Compound 628] the figure was less than 1000 nM; with `Cc1cn2cc(C(=O)Nc3ccc(N4CCN[C@@H](C)C4)nn3)c(O[C@H]3CCOC3)cc2n1` [Compound 213, 2-methyl-N-(6-((S)-3-methylpiperazin-1-yl)pyridazin-3-yl)-7-((tetrahydrofuran-3-yl)oxy)imidazo[1,2-a]pyridine-6-carboxamide], less than 1000 nM. On the same count and under the same terms, the result for `CCOc1cc2nc(C)cn2cc1C(=O)Nc1ccc(N2CC(NC)C2)nn1` [Compound 293] reads 1000 to 10000 nM; that for `CCOc1cc2nc(C)cn2cc1C(=O)Nc1ccc(N2C3CCC2CC(NC)C3)nn1` (stereo not drawn) [Compound 247], 1000 to 10000 nM. In turn, `COc1cc2nc(C)cn2cc1C(=O)Nc1ccc(N2CC3CNC(C3)C2)cc1F` (stereo not drawn) [Compound 155, N-(4-(3,6-diazabicyclo[3.2.1]octan-3-yl)-2-fluorophenyl)-7-methoxy-2-methylimidazo[1,2-a]pyridine-6-carboxamide] registered an IC50 of less than 1000 nM. For the molecule `CCOc1cc2nc(C)cn2cc1C(=O)Nc1ccc(N2C[C@@H]3CCCN[C@@H]3C2)nn1` [Compound 260], the IC50 was in the range of 1000 to 10000 nM.

Molecule `CCOc1cc2nc(C)cn2cc1C(=O)Nc1ccc(N2CCNC(C)C2)nn1` (stereo not drawn) [Compound 295] showed an IC50 of less than 1000 nM. `Cc1cn2cc(C(=O)Nc3ccc(N4CCNCC4)cn3)c(OC(C)C)cc2n1` [Compound 129, 7-isopropoxy-2-methyl-N-(5-(piperazin-1-yl)pyridin-2-yl)imidazo[1,2-a]pyridine-6-carboxamide hydrochloride] gave an IC50 of 1000 to 10000 nM. Same read-out and setting: the result for `CCOc1cc2nc(C)cn2cc1C(=O)Nc1ccc(N2CCNCCC2C)nn1` (stereo not drawn) [Compound 264] reads 1000 to 10000 nM; that for `COc1cc2nc(C)cn2cc1C(=O)Nc1ccc(C2CCNCC2)cn1` [Compound 735, 7-methoxy-2-methyl-N-(5-(piperidin-4-yl)pyridin-2-yl) imidazo[1,2-a]pyridine-6-carboxamide hydrochloride], 1000 to 10000 nM. `CCOc1cc2nc(C)cn2cc1C(=O)Nc1ccc(N2CCC3(CCNCC3)CC2)nn1` [Compound 284]: the IC50 lay in the range of 1000 to 10000 nM.

Consider `CCOc1cc2nc(C)cn2cc1C(=O)Nc1ccc(N2CCC3CCNCC3C2)nn1` (stereo not drawn) [Compound 240], for which the IC50 lay within 1000 to 10000 nM.
